One experiment relates to cats. The settings on record: cited from earlier work.
Another experiment relates to fasting-induced HDIR. The experiment is described as follows: Fasting-induced HISS-dependent insulin resistance (HDIR) model, overnight fast. The class given is in vivo. The source says:
A model of low hepatic GSH and NO production is produced by overnight fasting.

For the next experiment, the system named is HISS. The experiment can be described thus: HISS action after NOS blockade. Format: in vivo.
In the next experiment the test system is Wistar rats. The experiment can be described thus: Rapid Insulin Sensitivity Test (RIST), euglycemic clamp, in saline and BSO (GSH-depleted) rats. The class given is in vivo, rat. From the text: The rapid insulin sensitivity test (RIST) was employed (Lautt et al., Can. J. Physiol. Pharmacol. 76:1080 (1998)) is employed to avoid the complexity of the reaction to hypoglycemia. The RIST involves use of a euglycemic clamp following the administration of insulin and quantitation of the response as the amount of glucose required to be infused over the test period in order to hold arterial blood glucose levels constant. […] It is highly reproducible with up to five consecutive responses being obtainable in cats and four in rats with blood glucose levels returning to control levels between each test. Insulin, glucagon, and catecholamine levels remain unchanged between tests.
(§1) Summary: GSH depletion was induced in 5 week old Wistar rats using buthionine sulfoximine (BS), 2 mmol/kg bw, i.p. for 20 days. Control rats were injected with an equal volume of saline. Insulin sensitivity was measured using a euglycemic clamp, the Rapid Insulin Sensitivity Test—RIST. In both the saline group (SG) and BSO group (BG) a control RIST followed by a RIST post-L-NAME (1 mg/kg i.p.v.), a NOS competitive antagonist, and a RIST post-SIN-1 (5 mg/kg i.p.v.), a NO donor, were performed. The liver was removed for further determined of hepatic GSH content using the GSH peroxidase-reductase assay. […] The control RIST, 248.0±15.8 mg glucose/kg for SG, was impaired in the BG (158.4±12.2 mg glucose/kg; p<0.01). After L-NAME the SG RIST was 129.0±1.9 mg glucose/kg and the BG RIST was 109.0±9.1 mg glucose/kg. […] HISS action, quantified by subtracting the post L-NAME RIST from the control RIST, was 114.0±15.8 mg glucose/kg for SG and only 49.3±8.6 mg glucose/kg for BG (p<0.01). HISS dependent insulin resistance appears to be related to impaired levels of GSH in the liver, leading to a compromised HISS secretion/release.
Male Wistar rats (8 weeks) were anaesthetized with sodium pentobaribtial (65 mg/kg). Body temperature was maintained at 37±0.5 °C. An arterial-venous loop (carotid artery and internal jugular vein) was employed. A catheter was inserted into the portal vein.
RIST (Rapid Insulin Sensitivity Test): Blood samples (25 μl) for arterial glucose analysis were taken from the arterial-venous loop. A stable glucose baseline was established. Insulin (50 mU/kg i.v.) was infused over 5 minutes. Arterial blood samples were taken every 2 minutes. Glucose was adjusted to maintain euglycemia. RIST index=mg glucose/kg infused during RIST.

In another experiment the test system is hepatic GSH. The experiment can be described thus: Hepatic GSH content by GSH peroxidase-reductase assay. The class given is in vivo, rat. As for the experimental part: as §1, with “Test-RIST.” for “Test—RIST.”, “post-[…]” for “post-L-NAME (1 mg/kg i.p.v.), a”, “secretion/release. […] CONTENT: […] Hepatic GSH content was decreased in 48.3±6.9% in BSO group. ***=p<0.001.” for “secretion/release.”

The next experiment concerns hepatic glutathione. The settings on record: cited from earlier work.

Several values for one entry are separate records, joined by “and”; a condition that tells them apart may be missing. Equal values may be shown once. Entries after “also recorded” stand apart in the source; their conditions may differ.

Take `COc1ccccc1CNCCCCCCNCCCCCCCCNCCCCCCNCc1ccccc1OC` [methoctramine]: the “dose producing full / similar degree of insulin resistance” value with cats was 10^−6 μmol/kg.
With `[NH-]c1c[n+](N2CCOCC2)no1` [SIN-1, 3-morpholinosyndnonimine], in the experiment on fasting-induced HDIR (SIN-1 2.5 to 10 mg/kg i.p.v., overnight fast), the “reversal of fasting induced HDIR by SIN-1 alone” value is “do not reverse fasting induced HDIR”. For the same molecule, the “HISS action after NOS blockade” value in the experiment with HISS is “reverses HISS inhibition after NOS blockade”. Further, the “restoration of RIST index / insulin action by SIN-1 in BSO group” value with Wistar rats (BSO-treated rats, SIN-1 5 mg/kg i.p.v. after L-NAME, 5 mg/kg) is listed as “only restored insulin action in the SG; also recorded: did not reverse the RIST index to control values”. In addition, the “RIST index post-SIN-1” value in the experiment with Wistar rats (saline/control group, SIN-1 5 mg/kg i.p.v. after L-NAME, 5 mg/kg) is 246.0±11.5 mg glucose/kg and 258.1±18.5 mg glucose/kg.
With `CN1CCN(CC(=O)N2c3ccccc3C(=O)Nc3cccnc32)CC1` [pirenzepine], in the experiment on cats, the “dose producing a similar degree of insulin resistance” value is 10^−7 mmol/kg.
For the molecule `COC(=O)[C@@H](N)CCCNC(=N)N[N+](=O)[O-]` [L-NAME], in the experiment with Wistar rats (BSO-treated rats, L-NAME 1 mg/kg intraportal), the “RIST index post-L-NAME in BSO group” value was 109.0±9.1 mg glucose/kg and 109.8±9.1 mg glucose/kg. Moreover, the “inhibition of RIST index by L-NAME” value in the experiment on Wistar rats (control group, L-NAME 1 mg/kg i.p.v.) is reported as 52.3±5.8%.
As to `CN1[C@@H]2CC[C@H]1C[C@@H](OC(=O)C(CO)c1ccccc1)C2` (some centres unmarked) [atropine], the hepatic glucose response entry in the experiment with cats (arterial-venous glucose response to bolus insulin after atropine) was “not notably altered”.
In the case of `N[C@@H](CCC(=O)N[C@@H](CS)C(=O)NCC(=O)O)C(=O)O` [GSH, glutathione], the “reversal of HDIR / reduction in insulin resistance by GSH alone” value in the experiment with fasting-induced HDIR (GSH by itself) is recorded as “small but significant reduction in insulin resistance; also recorded: minor reversal of HDIR”. The “insulin sensitivity / reversal of HDIR by GSH together with NO donor” value in the experiment on fasting-induced HDIR (GSH plus NO / NO donor) is recorded as “Improved insulin sensitivity; also recorded: only becomes therapeutically significant after the addition of the NO donor”.
As for `CCCCS(=N)(=O)CCC(N)C(=O)O` (centres unmarked) [BSO, buthionine sulfoximine], the “control RIST index in BSO group” value in the experiment with Wistar rats (BSO 2 mmol/kg bw i.p. for 20 days, before L-NAME) came out at 158.4±12.2 mg glucose/kg. Moreover, the “decrease of HISS action” value in the experiment with Wistar rats (BSO group compared to control group) was found to be 64.4%. The “HISS-independent component of insulin action” value in the experiment on Wistar rats (BSO group versus control group) is “not different”. In addition, the “HISS action (HISS-dependent component of insulin action)” value in the experiment on Wistar rats (BSO group, control RIST minus post L-NAME RIST) was 49.3±8.6 mg glucose/kg and 49.3±8.56 mg glucose/kg. Also, the “reduction in hepatic GSH content” value in the experiment with hepatic GSH (BSO group compared to saline/control group) amounted to 48.3±6.9%. In addition, the “hepatic GSH content” value with hepatic GSH (BSO group, BSO 2 mmol/kg bw i.p. for 20 days) is recorded as 2.96±0.4 μmol/g fresh liver.
With `C[S+](CC[C@H](N)C(=O)O)C[C@H]1O[C@@H](n2cnc3c(N)ncnc32)[C@H](O)[C@@H]1O` (some centres unmarked) [SAMe, S-adenosylmethionine], the “time of peak glutathione levels” value in the experiment on hepatic glutathione (after oral administration of SAMe) was 3 to 6 h. Besides, the “intrahepatic glutathione after SAMe administration” value in the experiment on hepatic glutathione (in vivo) is recorded as “restored to near-normal levels”.
As to Nitroprusside, in the experiment on HISS, the “HISS action after NOS blockade” value was “not able to restore HISS action after NOS blockade”.

The record behind these values is patent US7622447B2, “Use of glutathione synthesis stimulating compounds in reducing insulin resistance” (DiaMedica Inc., priority 2002, dated 2009).
